From patent publication US11236102B2, “Oxabicycloheptane prodrugs” (Lixte Biotechnology, Inc., priority 2015, dated 2022)
“Also recorded” adds a separate entry of the source.

Experiments:
in vivo = conditions: rat, iv, 1.4 mg/kg; for Kp at 0.25 hr / Kp at 1 hr / Kp at 2 hr: Liver-plasma concentration ratio of Endothal
Description: 113 was dissolved in 4% NaHCO3 in saline for IV administration. The detailed procedure of dosing solution preparation was presented in Appendix I.
15 animals were placed on the study. The animals in IV arm were free access to food and water. For PO dose group, the animals were fasted overnight prior to dosing and the food was resumed 4 hours postdose.
The IV injection was conducted via foot dorsal vein. PO via oral gavage.
Blood collection: The animal is restrained manually. Approximately 200 μL of blood/time point is collected into sodium heparin tube via cardiac puncture for terminal bleeding (anesthetized under carbon dioxide). Blood sample will be put on ice and centrifuged to obtain plasma sample (2000 g, 5 min under 4° C.) within 10 minutes.
Liver collection: The animal will be euthanized with carbon dioxide inhalation. Open abdominal cavity with scissor to expose internal organs. Hold the carcass in an upright position and allow the organs to fall forward. Cut the connective tissues and remove the organs. Then the organs are rinsed with cold saline, dried on filtrate paper, placed into a screw-top tube and weighed, snap frozen by placing into dry-ice immediately.
Brain collection: Make a mid-line incision in the animals scalp and retract the skin. Using small bone cutters and rongeurs, remove the skull overlying the brain. Remove the brain using a spatula and rinse with cold saline, dried on filtrate paper, placed into a screw-top tube and weighed, snap frozen by placing into dry-ice immediately. […] Plasma, brain and liver samples were stored at approximately −80° C. until analysis. The backup samples will be discarded after three weeks after in-life completion unless requested. The unused dosing solutions will be discarded within three weeks after completion of the study.
Pharmacokinetic Analysis Software: The PK parameters were determined by non-compartmental model of non-compartmental analysis tool, Pharsight Phoenix WinNonlin® 6.2 software. […] Concentration data within 80%-120% of LLOQ was considered within normal instrumental variation and presented in the results. Terminal t1/2 calculation: Time points were automatic selected by “best fit” model for terminal half life estimation as the first option. Manual selection was applied when “best fit” could not well define the terminal phase. Results

[1] = Pharmacokinetic study of 100 (iv 0.5, 1.0, 1.5 mg/kg) in SD rats: 100 and endothal in plasma, liver, brain; assay type: in vivo; conditions: for Endothal brain concentration / Endothal plasma concentration: SD rats
Description: 100 was administrated via iv route at 0.5, 1.0 and 1.5 mg/kg into SD rats. The blood, liver and brain tissue samples were collected at predetermined times from rats.
Twelve (12) female SD rats per group were dosed by iv with 100. The rats were fasted overnight prior to dosing, with free access to water. Foods were withheld for 2 hours post-dose. Blood, liver and brain tissue samples in two animals each group were collected at each time point, within 10% of the scheduled time for each time point. Two extra animals were used for analytic method development. Blood (>0.3 mL) were collected via aorta abdominalis in anaesthetic animals into tubes containing heparin at 15 min, 1, 2, 6, 10 and 24 hours after iv administration. Liver and brain tissues were collected immediately after animal death. The liver and brain tissues were excised and rinsed with cold saline to avoid blood residual. Upon collection, each sample was placed on ice and the blood samples were subsequently centrifuged (4° C., 11000 rpm, 5 min) to separate plasma. The obtained plasma, liver and brain tissue samples were stored at −70° C. until LC-MS/MS analysis.
AUC0-∞ (AUCINF) is the area under the plasma concentration-time curve with last concentration extrapolated based on the elimination rate constant.

protein phosphatase PP2A = protein phosphatase PP2A (Homo sapiens, UniProt P67775); assay: Inhibition of purified protein phosphatase PP2A; assay type: biochemical
Description: In vivo, endothall has a longer half-life that LB-100 on the order of 6 hours compared to about 1 hour or less for LB-100. […] A half-life of several hours of activity is clinically more desirable that much shorter durations. Modification of substituents of LB-100 provide opportunities to further enhance the clinical usefulness of LB-100 by for example improving oral absorption, uptake into specific organs bearing the disease process, for example, the brain, and further modifying the rate of conversion for effective delivery of parent compound and/or endothall to tissue.

[2] = male, SD, liver concentration of Endothal
[3] = 100 iv 0.5 mg/kg, 24 hr, individual rats
[4] = female, Sprague-Dawley, rat, in vivo, iv, 1.5 mg/kg

Sequence of protein phosphatase PP2A (P67775 whole entry): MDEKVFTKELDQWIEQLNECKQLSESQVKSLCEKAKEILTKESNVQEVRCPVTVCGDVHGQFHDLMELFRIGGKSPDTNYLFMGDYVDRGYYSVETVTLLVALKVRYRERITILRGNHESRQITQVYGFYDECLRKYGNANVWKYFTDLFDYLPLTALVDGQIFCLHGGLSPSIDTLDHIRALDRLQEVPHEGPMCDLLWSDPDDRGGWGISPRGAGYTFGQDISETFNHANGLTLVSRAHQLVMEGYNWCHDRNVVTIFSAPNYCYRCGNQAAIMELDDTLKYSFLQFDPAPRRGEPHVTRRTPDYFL

O=C(O)C1C2CCC(O2)C1C(=O)O (stereo not drawn) [Endothal, 7-oxabicyclo[2.2.1]heptane-2,3-dicarboxylic acid]
Kp at 0.25 hr (in vivo; male, SD): 29.2
Kp at 1 hr (in vivo; male, SD): 27.9
Kp at 2 hr (in vivo; male, SD): 23
Kp at 0.25 hr (in vivo; male, SD, 113 IV 1.4 mg/kg, SD rats, 0.25 hr, mean): 22.7
Kp at 1 hr (in vivo; male, SD, 113 IV 1.4 mg/kg, SD rats, 1 hr, individual): 21.7
Kp at 2 hr (in vivo; male, SD, 113 IV 1.4 mg/kg, SD rats, 2 hr, individual): 45.7
concentration at 0.25 hr (in vivo; [2]): 727 ng/g
concentration at 1 hr (in vivo; [2]): 902 ng/g
concentration at 2 hr (in vivo; [2]): 998 ng/g
concentration at 6 hr (in vivo; [2]): 526 ng/g
concentration at 10 hr (in vivo; [2]): 288 ng/g
concentration at 24 hr (in vivo; [2]): 66.9 ng/g
concentration at 2 hr (in vivo; male, SD, plasma concentration of Endothal): 30.4 ng/mL
AUC(0-last) in liver (in vivo): 8086 ng·h/g
AUC(0-∞) in liver (in vivo): 8678 ng·h/g
Endothal brain concentration ([1]; 100 iv 0.5 mg/kg, 0.25 hr, individual rats): BLQ
Endothal brain concentration ([1]; 100 iv 0.5 mg/kg, 0.25 hr, mean): BLQ
Endothal brain concentration ([1]; 100 iv 0.5 mg/kg, 1 hr, individual rats): BLQ
Endothal brain concentration ([1]; 100 iv 0.5 mg/kg, 1 hr, mean): BLQ
Endothal brain concentration ([1]; 100 iv 0.5 mg/kg, 2 hr, individual rats): BLQ
Endothal brain concentration ([1]; 100 iv 0.5 mg/kg, 2 hr, mean): BLQ
Endothal brain concentration ([1]; 100 iv 0.5 mg/kg, 6 hr, individual rats): BLQ
Endothal plasma concentration ([1]; 100 iv 0.5 mg/kg, 6 hr, individual rats, 0.5 mg/kg): BLQ
Endothal brain concentration ([1]; 100 iv 0.5 mg/kg, 6 hr, mean): BLQ
Endothal brain concentration ([1]; 100 iv 0.5 mg/kg, 10 hr, individual rats): BLQ
Endothal brain concentration ([1]; 100 iv 0.5 mg/kg, 10 hr, mean): BLQ
Endothal brain concentration [1, 3]: BLQ
Endothal plasma concentration [1, 3]: BLQ
Endothal brain concentration ([1]; 100 iv 0.5 mg/kg, 24 hr, mean): BLQ
Endothal plasma concentration ([1]; 100 iv 0.5 mg/kg, 24 hr, mean): BLQ
Endothal brain concentration ([1]; 100 iv 1.0 mg/kg, 0.25 hr, individual rats): BLQ
Endothal brain concentration ([1]; 100 iv 1.0 mg/kg, 0.25 hr, mean): BLQ
Endothal brain concentration ([1]; 100 iv 1.0 mg/kg, 1 hr, individual rats): BLQ
Endothal brain concentration ([1]; 100 iv 1.0 mg/kg, 1 hr, mean): BLQ
Endothal brain concentration ([1]; 100 iv 1.0 mg/kg, 2 hr, individual rats): BLQ
Endothal brain concentration ([1]; 100 iv 1.0 mg/kg, 2 hr, mean): BLQ
Endothal brain concentration ([1]; 100 iv 1.0 mg/kg, 6 hr, individual rats): BLQ
Endothal brain concentration ([1]; 100 iv 1.0 mg/kg, 6 hr, mean): BLQ
Endothal brain concentration ([1]; 100 iv 1.0 mg/kg, 10 hr, individual rats): BLQ
Endothal brain concentration ([1]; 100 iv 1.0 mg/kg, 10 hr, mean): BLQ
Endothal brain concentration ([1]; 100 iv 1.0 mg/kg, 24 hr, individual rats): BLQ
Endothal brain concentration ([1]; 100 iv 1.0 mg/kg, 24 hr, mean): BLO
Endothal brain concentration ([1]; 100 iv 1.5 mg/kg, 0.25 hr, individual rats): BLQ
Endothal brain concentration ([1]; 100 iv 1.5 mg/kg, 0.25 hr, mean): BLQ
Endothal brain concentration ([1]; 100 iv 1.5 mg/kg, 1 hr, individual rats): BLQ
Endothal brain concentration ([1]; 100 iv 1.5 mg/kg, 1 hr, mean): BLQ
Endothal brain concentration ([1]; 100 iv 1.5 mg/kg, 2 hr, individual rats): BLQ
Endothal brain concentration ([1]; 100 iv 1.5 mg/kg, 2 hr, mean): BLQ
Endothal brain concentration ([1]; 100 iv 1.5 mg/kg, 6 hr, individual rats): BLQ
Endothal brain concentration ([1]; 100 iv 1.5 mg/kg, 6 hr, mean): BLQ
Endothal brain concentration ([1]; 100 iv 1.5 mg/kg, 10 hr, individual rats): BLQ
Endothal brain concentration ([1]; 100 iv 1.5 mg/kg, 10 hr, mean): BLQ
Endothal brain concentration ([1]; 100 iv 1.5 mg/kg, 24 hr, individual rats): BLQ
Endothal brain concentration ([1]; 100 iv 1.5 mg/kg, 24 hr, mean): BLQ
half-life ([1]; Sprague-Dawley, rat, in vivo): ~6 h
detectability in brain samples ([1]; endothal after single iv 100 at 0.5, 1.0 and 1.5 mg/kg): not detectable; also recorded: undetectable
AUClast in plasma [1, 4]: 546 to 4476 ng·h/mL
Cmax [1, 4]: 349 to 2960 ng/g
T1/2 in liver [1, 4]: 4.57 to 10.1 h
T1/2 in plasma [1, 4]: 6.25 to 7.06 h
mean Cmax in plasma [1, 4]: 577 to 1230 ng/mL
AUClast in liver ([1]; rat, in vivo, iv, 1.5 mg/kg): 2598 to 18434 ng·h/g
IC50 (protein phosphatase PP2A): ~90 nM
